In patent US7232805B2, “Cobalamin conjugates for anti-tumor therapy” (Inflabloc Pharmaceuticals, Inc., priority 2003, dated 2007):

Assays:
[1] = system: MX-1 human breast carcinoma xenograft; assay: tumor growth delay, MX-1 xenograft, single-cycle dosing (Example 3); conditions: 3 mg/kg/day x 5 days intravenous
Procedure: Test articles were administered on the day of pair matching, Day 1.
The upper limit of acceptability is 20% weight loss.

[2] = system: MX-1 human breast carcinoma xenograft; assay: tumor growth delay, MX-1 xenograft, two-cycle dosing (Example 11); conditions: 2-cycle
Procedure: The following procedure was used to investigate the tumor growth delay effects of the conjugate, particularly for the treatment of MX-1 human breast carcinoma xenograft in athymic mice using a two-cycle dosing regimen. Female nude Harlan mice are implanted subcutaneously with 1 mm^3 MX 1 solid tumor fragments in the flank. During the pre-dose phase of implantation and growth, tumors are initially monitored twice weekly, and then daily as the neoplasms approach the desired size of 80-120 mg. When the majority of tumors reached the targeted weight range (80-120 mg), mice are pair-matched into 5 treatment groups of 10 mice each. For purposes of this illustrationon the effect of 2-cycles of treatment, data from 3 groups are shown: no treatment, 3 mg/kg/day (days 1-5, 21-25) intravenous Doxorubicin and 24 mg/kg/day (days 1-5, 21-25) intravenous bioconjugate. Test article administration began on this day, referred to as Day 1. The tumor growth delay endpoint is reached when the tumor on the mouse reaches 1.5 gm weight estimated by the formula: Tumor weight (mg)=w^2×l/2×1 mg/mm^3, where w=width (mm) and l=length (mm) of the tumor. The median time to endpoint is calculated for each treatment group.

[3] = systemic toxicity / MTD of free doxorubicin versus conjugate on a molar basis (separate study); type: in vivo, mice

COc1cccc2c1C(=O)c1c(O)c3c(c(O)c1C2=O)C[C@@](O)(C(=O)CO)C[C@@H]3O[C@H]1C[C@H](N)[C@H](O)[C@H](C)O1 [Doxorubicin, doxorubicin, reference compound]
median delay in tumor growth (median time to endpoint, tumor 1.5 gm) [1]: 39.5 days | treatment or nontreatment related deaths [1]: no other treatment or nontreatment related deaths | long-term, tumor-free survivors ([1]; 10 mice): no long-term, tumor-free survivors | partial or complete tumor regressions ([1]; 10 mice): no partial or complete tumor regressions | time to endpoint longer than control mice ([2]; 3 mg/kg/day (days 1-5, 21-25) intravenous): at least 44 days | treatment or nontreatment related deaths ([2]; 3 mg/kg/day intravenous): no treatment or nontreatment related deaths | long-term, tumor-free survivors ([2]; 3 mg/kg/day intravenous, at 71 days): significant percentage | lethality at the same high molar dose ([3]; free doxorubicin at the same high molar dose as the conjugate): mice were killed by the free doxorubicin | MTD lower than for the conjugate on a molar basis ([3]; separate study): at least 2.3 times
